Results: PubChem BioAssay AID256 (DTP/NCI, 2004)
Values joined by “and” are separate entries in the source; they are usually repeats but may differ in a detail not shown here. Equal values may be shown once. Inconclusive results and toxic doses are left out. The calls were made as follows: active = survival T/C of 150% or more; inactive = T/C below 125% in these data.

Test system: CD2F1 mice, L1210 leukemia ip, survival T/C
Experiment: NCI In Vivo Anticancer Drug Screen. Data for tumor model L1210 Leukemia (intraperitoneal) in CD2F1 (CDF1) mice
Conditions: higher = longer survival
Procedure, shortened: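 Implant tumor; dose compound or vehicle; measure endpoint in both groups; report treated divided by control.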

[1] = endpoint: mean survival time, dose: 100.0 mg/kg/injection, schedule: Q04DX003 (ip), vehicle: saline with Tween-80
[2] = endpoint: mean survival time, dose: 200.0 mg/kg/injection, schedule: Q04DX003 (ip), vehicle: saline with Tween-80
[3] = endpoint: mean survival time, dose: 400.0 mg/kg/injection, schedule: Q04DX003 (ip), vehicle: saline with Tween-80
[4] = endpoint: mean survival time, dose: 100.0 mg/kg/injection, schedule: Q01DX009 (ip), vehicle: saline
[5] = endpoint: mean survival time, dose: 200.0 mg/kg/injection, schedule: Q01DX009 (ip), vehicle: saline
[6] = endpoint: mean survival time, dose: 12.5 mg/kg/injection, schedule: Q01DX005 (ip), vehicle: water
[7] = endpoint: mean survival time, dose: 25.0 mg/kg/injection, schedule: Q01DX005 (ip), vehicle: water
[8] = endpoint: mean survival time, dose: 50.0 mg/kg/injection, schedule: Q01DX005 (ip), vehicle: water
[9] = endpoint: mean survival time, dose: 100.0 mg/kg/injection, schedule: Q01DX005 (ip), vehicle: water
[10] = endpoint: mean survival time, dose: 200.0 mg/kg/injection, schedule: Q01DX005 (ip), vehicle: water
[11] = endpoint: mean survival time, dose: 100.0 mg/kg/injection, schedule: Q01DX009 (ip), vehicle: saline with Tween-80
[12] = endpoint: mean survival time, dose: 200.0 mg/kg/injection, schedule: Q01DX009 (ip), vehicle: saline with Tween-80
[13] = endpoint: mean survival time, dose: 100.0 mg/kg/injection, schedule: Q01DX001 (ip), vehicle: saline with Tween-80
[14] = endpoint: mean survival time, dose: 200.0 mg/kg/injection, schedule: Q01DX001 (ip), vehicle: saline with Tween-80
[15] = endpoint: mean survival time, dose: 400.0 mg/kg/injection, schedule: Q01DX001 (ip), vehicle: saline with Tween-80

Measured: T/C

OCCN1CCN(CCCN2c3ccccc3Sc3ccc(C(F)(F)F)cc32)CC1
inactive: endpoint: mean survival time, dose: 1.49 mg/kg/injection, schedule: Q01DX009 (ip), vehicle: saline 110 % of control | endpoint: mean survival time, dose: 2.27 mg/kg/injection, schedule: Q01DX009 (ip), vehicle: saline 113 % of control | endpoint: mean survival time, dose: 3.4 mg/kg/injection, schedule: Q01DX009 (ip), vehicle: saline 121 % of control | endpoint: mean survival time, dose: 5.0 mg/kg/injection, schedule: Q04DX003 (ip), vehicle: saline 116 % of control | endpoint: mean survival time, dose: 6.6 mg/kg/injection, schedule: Q04DX003 (ip), vehicle: saline sonified 100 % of control | endpoint: mean survival time, dose: 6.6 mg/kg/injection, schedule: Q04DX003 (ip), vehicle: saline 108 % of control | endpoint: mean survival time, dose: 10.0 mg/kg/injection, schedule: Q04DX003 (ip), vehicle: saline sonified 101 % of control | endpoint: mean survival time, dose: 10.0 mg/kg/injection, schedule: Q04DX003 (ip), vehicle: saline 116 % of control | endpoint: mean survival time, dose: 15.0 mg/kg/injection, schedule: Q04DX003 (ip), vehicle: saline 114 % of control and 94 % of control | endpoint: mean survival time, dose: 20.0 mg/kg/injection, schedule: Q04DX003 (ip), vehicle: saline 106 % of control | endpoint: mean survival time, dose: 30.0 mg/kg/injection, schedule: Q04DX003 (ip), vehicle: saline 75 % of control

C=C(c1ccccc1)c1ccc(F)cc1
inactive: endpoint: mean survival time, dose: 100.0 mg/kg/injection, schedule: Q01DX009 (ip), vehicle: saline sonified 102 % of control | [1] 100 % of control | endpoint: mean survival time, dose: 200.0 mg/kg/injection, schedule: Q01DX009 (ip), vehicle: saline sonified 97 % of control | [2] 100 % of control | endpoint: mean survival time, dose: 400.0 mg/kg/injection, schedule: Q01DX009 (ip), vehicle: saline sonified 103 % of control | [3] 102 % of control

CC(CO)CC/C(=N\O)C(C)C1/C(=N/O)CC2C=C3CC(O)CCC3(C)CC21C (stereo unspecified)
inactive: [1] 92 % of control | [2] 92 % of control | [3] 87 % of control

[Au].[NH-]CC[NH-].[NH-]CC[NH-]
inactive: endpoint: mean survival time, dose: 6.25 mg/kg/injection, schedule: Q01DX001 (ip), vehicle: water 89 % of control | endpoint: mean survival time, dose: 6.25 mg/kg/injection, schedule: Q04DX003 (ip), vehicle: water 98 % of control | endpoint: mean survival time, dose: 12.5 mg/kg/injection, schedule: Q01DX001 (ip), vehicle: water 94 % of control | endpoint: mean survival time, dose: 12.5 mg/kg/injection, schedule: Q04DX003 (ip), vehicle: water 89 % of control | endpoint: mean survival time, dose: 25.0 mg/kg/injection, schedule: Q01DX001 (ip), vehicle: water 101 % of control

CC1=CC(=O)OC1CC(=O)O (stereo unspecified)
inactive: endpoint: mean survival time, dose: 50.0 mg/kg/injection, schedule: Q01DX009 (ip), vehicle: saline 97 % of control | [4] 97 % of control | [5] 103 % of control

C[N+](C)(C)c1ccc(Cc2ccc([N+](C)(C)C)cc2)cc1
inactive: endpoint: mean survival time, dose: 6.3 micrograms/kg/injection, schedule: Q04DX002 (ip), vehicle: saline with Tween-80 101 % of control | endpoint: mean survival time, dose: 12.5 micrograms/kg/injection, schedule: Q04DX002 (ip), vehicle: saline with Tween-80 108 % of control | endpoint: mean survival time, dose: 25.0 micrograms/kg/injection, schedule: Q04DX002 (ip), vehicle: saline with Tween-80 101 % of control

O=[N+]([O-])c1ccc(CSc2ncnc3c2ncn3C2OC(COP(=O)(O)O)C(O)C2O)cc1 (stereo unspecified)
inactive: [6] 100 % of control | [7] 96 % of control | [8] 104 % of control | [9] 105 % of control | [10] 111 % of control

O=[N+]([O-])c1ccc(O)c(C[P+](c2ccccc2)(c2ccccc2)c2ccccc2)c1
inactive: [11] 93 % of control | [12] 95 % of control | endpoint: mean survival time, dose: 400.0 mg/kg/injection, schedule: Q01DX009 (ip), vehicle: saline with Tween-80 102 % of control

O=C([O][Bi]([c]1ccccc1)[c]1ccccc1)c1ccccc1
inactive: endpoint: median survival time, dose: 6.25 mg/kg/injection, schedule: Q01DX009 (ip), vehicle: Klucel (hydroxypropylcellulose) (HPC) 97 % of control | endpoint: median survival time, dose: 12.5 mg/kg/injection, schedule: Q01DX009 (ip), vehicle: Klucel (hydroxypropylcellulose) (HPC) 95 % of control | endpoint: median survival time, dose: 25.0 mg/kg/injection, schedule: Q01DX009 (ip), vehicle: Klucel (hydroxypropylcellulose) (HPC) 101 % of control

CC(C)(CN(Cc1ccccc1)Cc1ccccc1)[N+](=O)[O-]
inactive: endpoint: mean survival time, dose: 50.0 mg/kg/injection, schedule: Q01DX009 (ip), vehicle: saline with Tween-80 98 % of control | [11] 98 % of control | [12] 90 % of control

CC(C)CCCC(C)C1CCC2C3=CCC4CC(OC(=O)CCC(C)C)CCC4(C)C3CCC21C (stereo unspecified)
inactive: [1] 101 % of control | [2] 96 % of control | [3] 104 % of control

OCC1OC(n2ncc3c(NCc4ccco4)ncnc32)C(O)C1O (stereo unspecified)
inactive: endpoint: mean survival time, dose: 25.0 mg/kg/injection, schedule: Q01DX009 (ip), vehicle: water 95 % of control | endpoint: mean survival time, dose: 50.0 mg/kg/injection, schedule: Q01DX009 (ip), vehicle: water 95 % of control | endpoint: mean survival time, dose: 100.0 mg/kg/injection, schedule: Q01DX009 (ip), vehicle: water 100 % of control | endpoint: mean survival time, dose: 200.0 mg/kg/injection, schedule: Q01DX009 (ip), vehicle: water 104 % of control | endpoint: mean survival time, dose: 400.0 mg/kg/injection, schedule: Q01DX009 (ip), vehicle: water 106 % of control

O=Cc1c2ccc(Cl)cc2nc2cc(Cl)ccc12
inactive: [1] 112 % of control | [2] 93 % of control | [3] 102 % of control

CC1(O)Nc2nc3nc[nH]c3c(=O)n2C1O (stereo unspecified)
inactive: [6] 94 % of control | [7] 90 % of control | [8] 100 % of control | [9] 94 % of control | [10] 93 % of control

CC(=O)OCC(C)CCC1OC2CC3C4CCC5CC(OC(C)=O)CCC5(C)C4CCC3(C)C2C1C (stereo unspecified)
inactive: [13] 100 % of control | [14] 101 % of control | [15] 94 % of control

CC(C)(C)C#C/C(=N\Nc1ccc([N+](=O)[O-])cc1[N+](=O)[O-])c1ccccc1
inactive: [13] 94 % of control | [14] 89 % of control | [15] 86 % of control

O=C(Nc1ccc(F)cc1)c1ccc(C(=O)Nc2ccc(F)cc2)cc1
inactive: [1] 100 % of control | [3] 94 % of control

CC(=O)OCc1ccc(Cl)cc1
inactive: [1] 94 % of control | [2] 96 % of control | [3] 96 % of control

O=CC(NC(=O)OCc1ccccc1)C(O)C(O)C(O)CO (stereo unspecified)
inactive: endpoint: mean survival time, dose: 25.0 mg/kg/injection, schedule: Q01DX001 (ip), vehicle: saline with Tween-80 105 % of control | endpoint: mean survival time, dose: 50.0 mg/kg/injection, schedule: Q01DX001 (ip), vehicle: saline with Tween-80 102 % of control | [13] 102 % of control

O=c1c2nc(-c3ccccc3)oc2ncn1C1OC(CO)C(O)C1O (stereo unspecified)
inactive: endpoint: mean survival time, dose: 100.0 mg/kg/injection, schedule: Q01DX005 (ip), vehicle: saline 100 % of control | endpoint: mean survival time, dose: 200.0 mg/kg/injection, schedule: Q01DX005 (ip), vehicle: saline 98 % of control

CC(c1ccccc1)c1ccc(O)cc1 (stereo unspecified)
inactive: [1] 103 % of control | [2] 93 % of control | [3] 91 % of control

Nc1nc(N)c(N=O)c(N)n1
inactive: [4] 98 % of control | endpoint: mean survival time, dose: 100.0 mg/kg/injection, schedule: Q04DX003 (ip), vehicle: saline 103 % of control | [5] 97 % of control | endpoint: mean survival time, dose: 200.0 mg/kg/injection, schedule: Q04DX003 (ip), vehicle: saline 97 % of control | endpoint: mean survival time, dose: 400.0 mg/kg/injection, schedule: Q01DX009 (ip), vehicle: saline 100 % of control | endpoint: mean survival time, dose: 400.0 mg/kg/injection, schedule: Q04DX003 (ip), vehicle: saline 102 % of control
